SMILES strings stand for the structures.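 Interpolation was linear, between the two tested concentrations surrounding the appropriate level; five concentrations were tested over 48 hours in 96-well plates. At the GI50, growth is halved.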 Activity calls are given as the source filed them. Rule as the data show it: active = GI50 up to about 1.1 µM and inactive = higher.

Holding throughout (test): growth of human tumour cells (NCI), 48 h
For assay [1], the system named is NCI-H460.
Assay [2] deals with UO-31.
In assay [3] the test system is PC-3.
For assay [4], the system named is SN12C.
Assay [5] deals with LOX IMVI.
Assay [6] deals with MDA-N.
For assay [7], the system named is MDA-MB-231.
Assay [8] has as its system M14.
Assay [9] has as its system SNB-19.
Assay [10] deals with HCT-116.
Assay [11] has as its system 786-0.
For assay [12], the system named is CCRF-CEM.
In assay [13] the test system is DU-145.
Assay [14] deals with OVCAR-8.
In assay [15] the test system is A549.
Assay [16] has as its system KM12.
In assay [17] the test system is NCI-H226.
Assay [18] has as its system SK-MEL-28.
Assay [19] relates to SNB-75.

Turning to `C/C(=N\Nc1ccc2ccccc2n1)c1ccccc1O`, the GI50 in assay [1] is > 92.5 µM (inactive); in assay [2], 70.8 µM (inactive); in [3], > 100 µM (inactive); in assay [4] it was > 100 µM (inactive); in assay [5] it was > 100 µM (inactive); in assay [6], > 100 µM (inactive). The GI50 in [7] was > 83 µM (inactive); in assay [8], > 100 µM (inactive); in assay [9] it was > 63.8 µM (inactive); in assay [10] it was > 100 µM (inactive); in assay [11] it was > 37.3 µM (inactive); in assay [12], 3.33 µM (inactive). Besides, the GI50 was > 100 µM (inactive) in assay [13]; 56.1 µM (inactive) in assay [14]; > 100 µM (inactive) in assay [15]; > 100 µM (inactive) in assay [16]; > 90.2 µM (inactive) in assay [17]; > 100 µM (inactive) in [18]. In addition, in [19], the GI50 was < 0.01 µM (active).

In the case of `N/C(=N\Nc1ccc(S(N)(=O)=O)cc1)c1cnccn1`, the GI50 in assay [1], in assay [2], in [3], in [4], in [5] and in assay [6] was > 100 µM (inactive) each time. The GI50 in assay [7], in assay [8], in [9], in assay [10], in assay [11] and in [12] was > 100 µM (inactive) each time. Further, the GI50 in assay [13], in assay [14], in assay [15], in [16], in assay [17] and in assay [18] was > 100 µM (inactive) each time. Further, the GI50 in assay [19] was > 100 µM (inactive).

With `Cc1cc(O)c2c(c1)C(=O)C=C(Br)C2=O`, the GI50 in [1] was 19.9 µM (inactive); in [2], 15.5 µM (inactive); in assay [3] it was 17.8 µM (inactive); in assay [4], 16.4 µM (inactive); in assay [5] it was 12.8 µM (inactive); in assay [6] it was 15.3 µM (inactive). The GI50 in [7] was 16.9 µM (inactive); in assay [8] it was 15.8 µM (inactive); in [9], > 65.8 µM (inactive); in assay [10], 16.6 µM (inactive); in [11] it was 17.5 µM (inactive); in [12], 0.255 µM (active). Besides, the GI50 in assay [13] was 12.4 µM (inactive); in [14], 19.6 µM (inactive); in assay [15], 30.3 µM (inactive); in [16] it was 27.2 µM (inactive); in assay [17], 19.2 µM (inactive); in assay [18] it was 15.4 µM (inactive). The GI50 in [19] is 16.8 µM (inactive).

Regarding `CCN(CC(O)COc1ccc2c(c1)[n+]([O-])nc(N)[n+]2[O-])C(C)=O` (stereo not drawn), the GI50 in assay [1] is > 100 µM (inactive); in [2], > 100 µM (inactive); in [3] it was > 100 µM (inactive); in assay [4], > 100 µM (inactive); in [5], 76.6 µM (inactive); in assay [6] it was > 100 µM (inactive). Besides, the GI50 in assay [7] is > 100 µM (inactive); in assay [8], > 100 µM (inactive); in assay [9] it was > 100 µM (inactive); in assay [10], 97.9 µM (inactive); in [11], > 100 µM (inactive); in [12], 72.4 µM (inactive). For the same compound, the GI50 in [13] is > 100 µM (inactive); in assay [14], 59.3 µM (inactive); in assay [15], > 100 µM (inactive); in assay [16], > 100 µM (inactive); in assay [17] it was > 100 µM (inactive); in assay [18] it was > 100 µM (inactive). Also, the GI50 in [19] is 38.9 µM (inactive).

Regarding `CC1CCC2c3c([nH]c4ccccc34)C3C(=O)N(C4CCCCC4)C(=O)C3C2C1` (stereo not drawn), the GI50 in assay [1] is 26 µM (inactive); in [2], 19.8 µM (inactive); in assay [3], 38.3 µM (inactive); in assay [4], 22.9 µM (inactive); in [5] it was 52.5 µM (inactive); in assay [6], 33.3 µM (inactive). The GI50 in [7] is 11.8 µM (inactive); in [8], 23.7 µM (inactive); in assay [9] it was 16.4 µM (inactive); in assay [10] it was 11.9 µM (inactive); in [11], 6.85 µM (inactive); in assay [12], 57.7 µM (inactive). The GI50 was 30 µM (inactive) in [13]; 15.4 µM (inactive) in assay [14]; 19.1 µM (inactive) in assay [15]; 16.5 µM (inactive) in [17]; 15.1 µM (inactive) in assay [18]; 2.78 µM (inactive) in [19].

In the case of `CCC(=O)COc1ccc(NC(NC(=O)C(C(F)(F)F)C(F)(F)F)(C(F)(F)F)C(F)(F)F)cc1`, the GI50 in assay [1] was 77.4 µM (inactive); in [2], 39.8 µM (inactive); in assay [3] it was 48.1 µM (inactive); in assay [4], > 10 µM (inactive); in assay [5], 28.6 µM (inactive); in assay [6], 28.3 µM (inactive). Besides, the GI50 in [7] was 26.5 µM (inactive); in assay [8], 47.8 µM (inactive); in assay [9] it was 46.9 µM (inactive); in assay [10], 20.6 µM (inactive); in assay [11], 23.1 µM (inactive); in [12] it was 22.3 µM (inactive). Further, the GI50 in [13] is 22.2 µM (inactive); in assay [14], 23.9 µM (inactive); in [15], 54.5 µM (inactive); in assay [16] it was 36.2 µM (inactive); in assay [17] it was 19.2 µM (inactive); in assay [18], 59.4 µM (inactive). In addition, the GI50 in [19] is 23.7 µM (inactive).

For `COC(=O)c1ccc(NCC2=CC(=O)C=CC2=O)cc1O`, the GI50 in [1] is 21 µM (inactive); in assay [2], 12.7 µM (inactive); in [3] it was 31.8 µM (inactive); in assay [4] it was 21.5 µM (inactive); in assay [5], 16.8 µM (inactive); in [6] it was 16.4 µM (inactive). In addition, the GI50 was 16.8 µM (inactive) in [7]; 20.9 µM (inactive) in [8]; 19.7 µM (inactive) in assay [9]; 17.2 µM (inactive) in assay [10]; 15.7 µM (inactive) in assay [11]; 5.32 µM (inactive) in assay [12]. Further, the GI50 was 15.2 µM (inactive) in assay [13]; 15.5 µM (inactive) in assay [14]; 32.6 µM (inactive) in [15]; 19.5 µM (inactive) in assay [17]; 46 µM (inactive) in [18]; 19 µM (inactive) in assay [19].

As to `CCOC(=O)/C=C/CCO[Si](C)(C)C(C)(C)C`, the GI50 is > 100 µM (inactive) in assay [1]; > 100 µM (inactive) in [2]; > 100 µM (inactive) in assay [3]; > 100 µM (inactive) in assay [4]; 50.5 µM (inactive) in assay [5]; > 100 µM (inactive) in assay [6]. Besides, the GI50 in [7], in [9], in assay [10], in assay [11], in assay [12] and in assay [13] was > 100 µM (inactive) throughout. Also, the GI50 in assay [14] is > 100 µM (inactive); in assay [15], > 100 µM (inactive); in assay [16], > 100 µM (inactive); in assay [17], > 100 µM (inactive); in [18] it was > 100 µM (inactive); in assay [19] it was 82.8 µM (inactive).

Consider `Cc1ccc(C2=CC(=O)/C(=C\C(=O)c3ccc(Cl)cc3)O2)cc1`, for which the GI50 in [1] was > 10 µM (inactive); in [2], 9.51 µM (inactive); in assay [3] it was 2.43 µM (inactive); in assay [5], 1.43 µM (inactive); in assay [6] it was 3.2 µM (inactive); in [7], 12.1 µM (inactive). The GI50 in assay [8] was 18.3 µM (inactive); in assay [9] it was 49.2 µM (inactive); in assay [10], 14.3 µM (inactive); in assay [11], 9.95 µM (inactive); in assay [12], 3.19 µM (inactive); in [13] it was 32.6 µM (inactive). The GI50 in [14] is 3.13 µM (inactive); in [16], 22.8 µM (inactive); in assay [17], 17.2 µM (inactive); in assay [18] it was 16.9 µM (inactive); in assay [19], 35.8 µM (inactive).

As for `COc1ccc(-c2sc(Br)c3c2C(=O)C2OC(=O)NC32)cc1OC` (stereo not drawn), the GI50 was > 100 µM (inactive) in assay [1]; > 100 µM (inactive) in assay [2]; > 100 µM (inactive) in assay [3]; > 100 µM (inactive) in assay [4]; 45.2 µM (inactive) in assay [5]; > 100 µM (inactive) in assay [6]. For the same compound, the GI50 in assay [7], in assay [8], in assay [9], in assay [10], in assay [11] and in assay [12] was > 100 µM (inactive) in each case. In addition, the GI50 in [13], in [14], in [15], in assay [16], in assay [17] and in assay [19] was > 100 µM (inactive) throughout.

On to `COC(=O)[C@]1(c2cc3ccccc3[nH]2)CC2CN(CC(=O)N(C)OC)C1CC2(OC)OC` (stereo partly drawn), for which the GI50 was 55.3 µM (inactive) in assay [1]; 40.2 µM (inactive) in [2]; 24.2 µM (inactive) in [3]; 41.2 µM (inactive) in assay [4]; 37.7 µM (inactive) in assay [5]; 33.4 µM (inactive) in assay [6]. Moreover, the GI50 in assay [7] was 31.9 µM (inactive); in [8] it was 35.9 µM (inactive); in [9] it was > 100 µM (inactive); in assay [10], 26.9 µM (inactive); in assay [11], 22.2 µM (inactive); in assay [12] it was 7.23 µM (inactive). The GI50 is 43.5 µM (inactive) in [13]; 39.3 µM (inactive) in [14]; 47.1 µM (inactive) in [15]; 31.6 µM (inactive) in assay [16]; 34.4 µM (inactive) in assay [17]; > 100 µM (inactive) in assay [18]. Besides, the GI50 in assay [19] is 63.8 µM (inactive).

Values taken from ChEMBL document CHEMBL1201862, “PubChem BioAssay data set” (2004).
